Source: ChEMBL document CHEMBL1145616, “Pyridyl-phenyl ether monoamine reuptake inhibitors: Impact of lipophilicity on dual SNRI pharmacology and off-target promiscuity” (Bioorg Med Chem Lett, 2008)

Key:
[1] = biological target: Sodium-dependent serotonin transporter (Homo sapiens, UniProt P31645); assay: Inhibition of [3H]5-HT uptake at human recombinant 5HT transporter expressed in HEK293 cells; format: cell-based
[2] = biological target: Sodium-dependent noradrenaline transporter (Homo sapiens, UniProt P23975); assay: Inhibition of [3H]NA uptake at human recombinant NA transporter expressed in HEK293 cells; format: cell-based
Chain of Sodium-dependent noradrenaline transporter (P23975 whole entry): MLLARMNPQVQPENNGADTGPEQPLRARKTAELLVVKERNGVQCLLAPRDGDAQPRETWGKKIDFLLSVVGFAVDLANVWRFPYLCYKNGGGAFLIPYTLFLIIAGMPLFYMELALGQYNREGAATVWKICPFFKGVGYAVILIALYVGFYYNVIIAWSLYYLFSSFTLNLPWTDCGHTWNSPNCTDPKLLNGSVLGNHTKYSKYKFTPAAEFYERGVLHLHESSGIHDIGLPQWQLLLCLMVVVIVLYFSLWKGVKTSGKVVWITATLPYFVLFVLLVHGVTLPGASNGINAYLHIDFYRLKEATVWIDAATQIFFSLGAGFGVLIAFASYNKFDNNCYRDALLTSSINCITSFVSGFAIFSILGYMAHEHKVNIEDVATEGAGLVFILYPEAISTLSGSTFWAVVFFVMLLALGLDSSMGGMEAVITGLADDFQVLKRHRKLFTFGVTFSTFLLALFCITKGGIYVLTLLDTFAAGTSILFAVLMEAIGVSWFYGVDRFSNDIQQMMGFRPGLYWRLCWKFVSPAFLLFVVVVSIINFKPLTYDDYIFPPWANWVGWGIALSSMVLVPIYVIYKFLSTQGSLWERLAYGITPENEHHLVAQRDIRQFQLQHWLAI

[3] = biological target: Sodium-dependent dopamine transporter (Homo sapiens, UniProt Q01959); assay: Inhibition of [3H]DA uptake at human recombinant DAT expressed in HEK293 cells; format: cell-based
Chain of Sodium-dependent dopamine transporter (Q01959 whole entry): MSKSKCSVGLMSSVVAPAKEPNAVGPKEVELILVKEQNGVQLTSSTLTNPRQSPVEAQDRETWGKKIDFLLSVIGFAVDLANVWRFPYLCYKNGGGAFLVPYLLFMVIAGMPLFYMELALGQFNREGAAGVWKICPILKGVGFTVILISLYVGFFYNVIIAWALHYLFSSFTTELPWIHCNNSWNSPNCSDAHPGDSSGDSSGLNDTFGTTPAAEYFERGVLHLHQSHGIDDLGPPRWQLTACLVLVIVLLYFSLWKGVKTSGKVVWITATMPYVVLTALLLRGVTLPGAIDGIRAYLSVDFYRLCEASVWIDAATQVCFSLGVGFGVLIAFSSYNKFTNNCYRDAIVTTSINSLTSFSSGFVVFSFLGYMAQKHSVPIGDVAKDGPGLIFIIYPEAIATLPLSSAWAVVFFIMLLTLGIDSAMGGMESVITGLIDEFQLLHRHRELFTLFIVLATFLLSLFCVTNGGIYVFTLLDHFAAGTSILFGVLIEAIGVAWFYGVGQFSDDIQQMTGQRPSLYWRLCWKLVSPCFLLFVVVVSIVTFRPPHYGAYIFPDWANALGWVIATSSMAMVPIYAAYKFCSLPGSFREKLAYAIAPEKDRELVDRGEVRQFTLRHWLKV

[4] = Intrinsic clearance per 10^6 cells in human hepatocytes; format: ADME, cell-based, Liver, Hepatocyte
[5] = Intrinsic clearance in human liver microsomes; format: ADME, Microsome
[6] = biological target: Cytochrome P450 3A4 (Homo sapiens, UniProt P08684); assay: Inhibition of CYP3A4; format: ADME
Chain of Cytochrome P450 3A4 (P08684 whole entry): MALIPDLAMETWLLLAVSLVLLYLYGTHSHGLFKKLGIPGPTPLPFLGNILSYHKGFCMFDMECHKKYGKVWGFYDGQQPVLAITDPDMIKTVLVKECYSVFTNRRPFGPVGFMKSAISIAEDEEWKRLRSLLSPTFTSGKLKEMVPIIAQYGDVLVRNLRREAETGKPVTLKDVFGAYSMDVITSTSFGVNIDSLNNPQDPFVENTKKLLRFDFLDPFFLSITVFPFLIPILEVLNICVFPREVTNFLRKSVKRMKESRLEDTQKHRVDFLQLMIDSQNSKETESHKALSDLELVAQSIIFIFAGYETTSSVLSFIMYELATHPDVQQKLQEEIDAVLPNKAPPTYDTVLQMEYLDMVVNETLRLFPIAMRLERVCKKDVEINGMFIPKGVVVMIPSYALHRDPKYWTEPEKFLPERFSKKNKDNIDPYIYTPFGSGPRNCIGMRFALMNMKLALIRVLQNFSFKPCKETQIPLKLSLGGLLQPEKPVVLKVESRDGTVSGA

[7] = biological target: Cytochrome P450 2D6 (Homo sapiens, UniProt P10635); assay: Inhibition of CYP2D6; format: ADME
Chain of Cytochrome P450 2D6 (P10635 whole entry): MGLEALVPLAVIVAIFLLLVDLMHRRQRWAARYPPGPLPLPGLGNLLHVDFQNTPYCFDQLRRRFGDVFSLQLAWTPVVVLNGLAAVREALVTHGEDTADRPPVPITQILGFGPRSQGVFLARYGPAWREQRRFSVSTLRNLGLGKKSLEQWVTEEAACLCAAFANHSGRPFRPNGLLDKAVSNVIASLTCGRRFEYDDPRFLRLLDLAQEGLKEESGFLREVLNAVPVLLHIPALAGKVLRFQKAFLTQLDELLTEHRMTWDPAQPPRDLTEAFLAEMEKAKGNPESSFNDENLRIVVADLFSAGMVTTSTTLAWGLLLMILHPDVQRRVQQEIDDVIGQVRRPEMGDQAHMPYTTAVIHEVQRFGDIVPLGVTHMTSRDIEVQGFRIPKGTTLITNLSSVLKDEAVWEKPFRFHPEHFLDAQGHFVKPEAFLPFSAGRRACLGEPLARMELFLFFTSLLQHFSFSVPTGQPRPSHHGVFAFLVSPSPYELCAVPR

Chain of Sodium-dependent serotonin transporter (P31645 whole entry): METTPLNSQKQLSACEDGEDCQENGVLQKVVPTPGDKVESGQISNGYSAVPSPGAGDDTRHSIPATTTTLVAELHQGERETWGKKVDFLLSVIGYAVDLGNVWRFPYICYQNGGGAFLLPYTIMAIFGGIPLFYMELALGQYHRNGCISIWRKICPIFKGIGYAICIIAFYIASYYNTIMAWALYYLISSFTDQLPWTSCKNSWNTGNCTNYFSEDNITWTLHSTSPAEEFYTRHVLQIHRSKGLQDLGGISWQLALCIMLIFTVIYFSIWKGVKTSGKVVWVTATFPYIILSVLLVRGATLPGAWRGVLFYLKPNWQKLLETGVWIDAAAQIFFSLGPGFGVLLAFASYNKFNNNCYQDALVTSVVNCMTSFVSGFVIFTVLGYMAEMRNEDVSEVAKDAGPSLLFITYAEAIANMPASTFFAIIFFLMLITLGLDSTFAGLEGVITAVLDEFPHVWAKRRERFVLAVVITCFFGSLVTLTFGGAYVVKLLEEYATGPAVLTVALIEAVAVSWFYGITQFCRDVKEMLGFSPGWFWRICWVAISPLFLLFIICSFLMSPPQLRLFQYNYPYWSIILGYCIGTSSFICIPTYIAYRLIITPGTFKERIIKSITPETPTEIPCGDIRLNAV

| SMILES | IC50 [1] | IC50 [2] | IC50 [3] | hepatocyte CLint [4] | microsomal CLint [5] | IC50 [6] | IC50 [7] |
| --- | --- | --- | --- | --- | --- | --- | --- |
| CNCc1cnccc1Oc1ccc(Cl)cc1Br | 23 nM | 85 nM |  |  |  |  |  |
| CN(C)Cc1cnccc1Oc1ccc(Cl)cc1Br | 4 nM | 26 nM | 1970 nM |  |  |  |  |
| CNCc1cnc(C)cc1Oc1ccc(Cl)cc1C | 6 nM | 51 nM |  |  |  |  |  |
| CCc1cc(Cl)ccc1Oc1cc(C)ncc1CN(C)C | 19 nM | 30 nM | > 34000 nM |  |  |  |  |
| CNCc1cnccc1Oc1ccc(Cl)cc1C | 14 nM | 246 nM |  |  |  |  |  |
| Cc1cc(Oc2ccc(Cl)cc2C)c(CN(C)C)cn1 | 6 nM | 26 nM | 1680 nM | < 5 µL/min/1e6 cells | < 7 µL/min/mg | > 10000 nM | > 10000 nM |
| CCc1cc(Cl)ccc1Oc1ccncc1CNC | 46 nM | 86 nM |  |  |  |  |  |
| COc1cc(Cl)ccc1Oc1ccncc1CN(C)C | 6 nM | 47 nM | 10200 nM |  |  |  |  |
| CNCc1cnccc1Oc1ccc(Cl)cc1OC | 14 nM | 282 nM |  |  |  |  |  |
| CNCc1cnccc1Oc1ccc(Cl)cc1Cl | 39 nM | 159 nM |  |  |  |  |  |
| CN(C)Cc1cnccc1Oc1ccc(Cl)cc1Cl | 8 nM | 25 nM | 2430 nM |  |  |  |  |
| CCOc1cc(Cl)ccc1Oc1ccncc1CNC | 24 nM | 394 nM |  |  |  |  |  |
| CNCc1cnc(C)cc1Oc1ccc(C)cc1OC | 18 nM | 257 nM |  |  |  |  |  |
| CNCc1cnc(C)cc1Oc1ccc(F)cc1C | 231 nM | > 400 nM |  |  |  |  |  |
| Cc1cc(Cl)ccc1Oc1ccncc1CN(C)C | 3 nM | 36 nM | 3230 nM |  |  |  |  |
| CCc1cc(Cl)ccc1Oc1ccncc1CN(C)C | 11 nM | 18 nM | > 38000 nM |  |  |  |  |
| CNCc1cc(C(=O)N(C)C)ccc1Oc1ccc(Cl)cc1OC | 7 nM |  | > 4000 nM | 21 µL/min/1e6 cells |  |  |  |
| CNCc1cnc(C)cc1Oc1ccc(Cl)cc1Br | 10 nM | 38 nM |  |  |  |  |  |
| CNCc1cnc(C)cc1Oc1ccc(Cl)cc1OC | 4 nM | 83 nM |  |  |  |  |  |
| COc1cc(Cl)ccc1Oc1cc(C)ncc1CN(C)C | 13 nM | 26 nM | 5040 nM | < 5 µL/min/1e6 cells | < 7 µL/min/mg | > 10000 nM | > 10000 nM |
| CCc1cc(Cl)ccc1Oc1cc(C)ncc1CNC | 20 nM | 22 nM | 34100 nM |  |  |  |  |
